The source of these data is patent publication US20240262815A1, “HETEROARYL DERIVATIVE, METHOD FOR PREPARING SAME, AND PHARMACEUTICAL COMPOSITION COMPRISING SAME AS ACTIVE INGREDIENT” (VORONOI INC., priority 2021, published 2024).

Where only a bound is given, the exact number is not on record here.

The experiment concerns SK-BR-3 cancer cells. Briefly: Inhibitory activity against proliferation of SK-BR-3 cancer cells (CellTiter-Glo). It is filed as cell-based. Conditions: Homo sapiens, SK-BR-3, 120 h, ErbB2-overexpressing SK-BR-3 cells, 120 hours after treatment. How it is done:
To evaluate the inhibitory activity of a compound according to the present invention against the proliferation of ErbB2-overexpressing cancer cells, the following experiment were performed.
10% FBS-added McCOY'S 5A was used for SK-BR-3 cancer cells. 20% FBS-added RPMI-1640 was used for BT-474 cancer cells. Transduced Ba/F3 cells were cultured in a RPMI-1640 medium to which 1 μg/ml puromycin (Invitrogen) was added.
48 hours before compound treatment, each type of the SK-BR-3 and BT-474 cells were seeded at 5,000 cells/well in a white clear bottom 96 well plate (Corning). The compound was diluted in dimethyl sulfoxide (SK-BR-3: 3-fold dilution, a total of 12 concentrations, BT-474: […], a total of 12 concentrations) and injected at 1 μl to have the final concentration of 0.2 nM to 5 μM. As for measurement of live cells, 120 hours after treatment with the compound, a CellTiter-Glo luminescent cell-viability reagent (Promega) was used to store the cells at room temperature for 10 minutes, followed by measurement of luminescence using a reader (SynergyNeo, Biotek). Each test was repeated three times.
The result values were calculated as a cell growth rate (%) compared to the control group. A graph was plotted using the GraphPad Prism version 8.3.0 program, and GI50 values were calculated.
In general terms: In ATP-based viability assays light output follows the ATP content of the culture.

Usually GI50 stands for the concentration giving 50% growth inhibition. Consider `C=CC(=O)Nc1cc(Nc2cc(N3OCC[C@@H]3c3cc(F)cc(-c4cccnc4)c3)ncn2)c(OC)cc1N1CCN(C)CC1` [Example 177, (R)-N-(5-((6-(3-(3-fluoro-5-(pyr-idin-3-yl)phenyl)-isoxazolidin-2-yl)-pyrimidin-4-yl)-amino)-4-meth-oxy-2-(4-methyl-piperazin-1-yl)-phenyl)acrylamide], for which the GI50 is 50 to 500 nM. With `C=CC(=O)Nc1cc(Nc2cc(N3OCC[C@@H]3c3cc(F)cc(-c4cccnc4)c3)ncn2)c(OC)cc1N(C)CCN(C)C` [Example 178, (R)-N-(2-((2-(dimethylamino)-ethyl)(methyl)-amino)-5-((6-(3-(3-fluoro-5-(pyr-idin-3-yl)phenyl)-isoxazolidin-2-yl)-pyrimidin-4-yl)-amino)-4-methoxy-phenyl)acrylamide] the figure was < 50 nM; with `C=CC(=O)Nc1cc(Nc2cc(N3OCCC3c3cccc(-c4cccs4)c3)ncn2)c(OC)cc1N1CCC(N2CCN(C3CC3)CC2)CC1` (stereo not shown) [Example 182, N-(2-(4-(4-cyclo-propylpiperazin-1-yl)piperidin-1-yl)-4-methoxy-5-((6-(3-(3-(thiophen-2-yl)phenyl)isoxazol-idin-2-yl)pyrim-idin-4-yl)amino)-phenyl)acrylamide], < 50 nM; with `C=CC(=O)Nc1cc(Nc2cc(N3OCC[C@@H]3c3cccc(C(=O)OC4CCCCC4)c3)ncn2)c(OC)cc1N1CCC(N2CCN(C3CC3)CC2)CC1` [Example 185, cyclohexyl (R)-3-(2-(6-((5-acryl-amido-4-(4-(4-cyclopropylpiper-azin-1-yl)piper-idin-1-yl)-2-meth-oxyphenyl)amino)-pyrimidin-4-yl)-isoxazolidin-3-yl)-benzoate], 50 to 500 nM. With `C=CC(=O)Nc1cc(Nc2cc(N3OCC[C@@H]3c3cccc(-c4ccccc4)c3)ncn2)c(OC)cc1N1CCC(N2CCN(C3CC3)CC2)CC1` [Example 190, (R)-N-(5-((6-(3-([1,1′-biphenyl]-3-yl)isoxazolidin-2-yl)pyrimidin-4-yl)-amino)-2-(4-(4-cyclopropylpiper-azin-1-yl)piper-idin-1-yl)-4-meth-oxyphenyl)acryl-amide] the figure was < 50 nM; with `C=CC(=O)Nc1cc(Nc2cc(N3OCC[C@@H]3c3cc(F)cc(Oc4cccc(F)c4)c3)ncn2)c(OC)cc1N1CCN(C)CC1` [Example 191, (R)-N-(5-((6-(3-(3-fluoro-5-(3-fluoro-phenoxy)phenyl)-isoxazolidin-2-yl)-pyrimidin-4-yl)-amino)-4-meth-oxy-2-(4-methyl-piperazin-1-yl)-phenyl)acrylamide], 50 to 500 nM.

Turning to `C=CC(=O)Nc1cc(Nc2cc(N3OCC[C@@H]3c3cc(F)cc(-c4ccsc4)c3)ncn2)c(OC)cc1N1CCN(C)CC1` [Example 193, (R)-N-(5-((6-(3-(3-fluoro-5-(thiophen-3-yl)phenyl)isox-azolidin-2-yl)pyr-imidin-4-yl)amino)-4-methoxy-2-(4-methylpiperazin-1-yl)phenyl)acryl-amide], the GI50 is < 50 nM. With `C=CC(=O)Nc1cc(Nc2cc(N3OCC[C@@H]3c3cc(F)cc(-c4ccsc4)c3)ncn2)c(OC)cc1N(C)CCN(C)C` [Example 194, (R)-N-(2-((2-(dimethylamino)-ethyl)(methyl)-amino)-5-((6-(3-(3-fluoro-5-(thio-phen-3-yl)phenyl)-isoxazolidin-2-yl)-pyrimidin-4-yl)-amino)-4-methoxy-phenyl)acrylamide] the figure was < 50 nM. For `C=CC(=O)Nc1cc(Nc2cc(N3OCC[C@@H]3c3cc(F)cc(OCc4ccccn4)c3)ncn2)c(OC)cc1N1CCN(C)CC1` [Example 195, (R)-N-(5-((6-(3-(3-fluoro-5-(pyr-idin-2-ylmethoxy)-phenyl)isoxazol-idin-2-yl)pyrim-idin-4-yl)amino)-4-methoxy-2-(4-methylpiperazin-1-yl)phenyl)-acrylamide] the value was < 50 nM; for `C=CC(=O)Nc1cc(Nc2cc(N3OCC[C@@H]3c3cc(F)cc(OCc4ccccn4)c3)ncn2)c(OC)cc1N(C)CCN(C)C` [Example 196, (R)-N-(2-((2-(dimethylamino)-ethyl)(methyl)-amino)-5-((6-(3-(3-fluoro-5-(pyr-idin-2-ylmethoxy)-phenyl)isoxazol-idin-2-yl)pyrim-idin-4-yl)amino)-4-methoxyphen-yl)acrylamide], < 50 nM; for `C=CC(=O)Nc1cc(Nc2cc(N3OCCC3c3cccc(-c4ccc5ncnn5c4)c3)ncn2)c(OC)cc1N1CCN(C)CC1` (stereo not shown) [Example 197, N-(5-((6-(3-(3-([1,2,4]triazolo-[1,5-a]pyridin-6-yl)phenyl)isoxazol-idin-2-yl)pyrim-idin-4-yl)amino)-4-methoxy-2-(4-methylpiperazin-1-yl)phenyl)-acrylamide], < 50 nM. On to `C=CC(=O)Nc1cc(Nc2cc(N3OCCC3c3cccc(-c4ccc5ncnn5c4)c3)ncn2)c(OC)cc1N(C)CCN(C)C` (stereo not shown) [Example 198, N-(5-((6-(3-(3-([1,2,4]triazolo-[1,5-a]pyridin-6-yl)phenyl)isoxazol-idin-2-yl)pyrim-idin-4-yl)amino)-2-((2-(dimethyl-amino)ethyl)-(methyl)amino)-4-methoxyphen-yl)acrylamide], for which the concentration for 50% growth inhibition (GI50) is < 50 nM. Turning to `C=CC(=O)Nc1cc(Nc2cc(N3OCC[C@@H]3c3cc(F)cc(Oc4cccc(F)c4)c3)ncn2)c(OC)cc1N(C)CCN(C)C` [Example 199, (R)-N-(2-((2-(dimethylamino)-ethyl)(methyl)-amino)-5-((6-(3-(3-fluoro-5-(3-fluorophenoxy)-phenyl)isoxazol-idin-2-yl)pyrim-idin-4-yl)amino)-4-methoxyphen-yl)acrylamide], the 50% growth inhibitory concentration (GI50) lay in the range of 50 to 500 nM. For `C=CC(=O)Nc1cc(Nc2cc(N3OCCC3c3cccc(-c4cnc5ccnn5c4)c3)ncn2)c(OC)cc1N(C)CCN(C)C` (stereo not shown) [Example 202, N-(2-((2-(dimethyl-amino)ethyl)-(methyl)amino)-4-methoxy-5-((6-(3-(3-(pyrazolo[1,5-a]pyrimidin-6-yl)-phenyl)isoxazol-idin-2-yl)pyrim-idin-4-yl)amino)-phenyl)acrylamide] the value was < 50 nM; for `C=CC(=O)Nc1cc(Nc2cc(N3OCCC3c3cccc(-c4cccn5ccnc45)c3)ncn2)c(OC)cc1N1CCN(C)CC1` (stereo not shown) [Example 203, N-(5-((6-(3-(3-(imidazo[1,2-a]-pyridin-8-yl)phen-yl)isoxazolidin-2-yl)pyrimidin-4-yl)amino)-4-meth-oxy-2-(4-methyl-piperazin-1-yl)-phenyl)acrylamide], < 50 nM; for `C=CC(=O)Nc1cc(Nc2cc(N3OCCC3c3cccc(-c4cccn5ccnc45)c3)ncn2)c(OC)cc1N(C)CCN(C)C` (stereo not shown) [Example 204, N-(2-((2-(dimeth-ylamino)ethyl)-(methyl)amino)-5-((6-(3-(3-(imidazo-[1,2-a]pyridin-8-yl)phenyl)isoxazol-idin-2-yl)pyrim-idin-4-yl)amino)-4-methoxyphen-yl)acrylamide], < 50 nM. For `C=CC(=O)Nc1cc(Nc2cc(N3OCC[C@@H]3c3cc(F)cc(-c4cccc(F)c4)c3)ncn2)c(OC)cc1N1CCC(N2CCN(C3CC3)[C@H](C)C2)CC1` [Example 206] the value was 500 to 5000 nM.

Take `C=CC(=O)Nc1cc(Nc2cc(N3OCC[C@@H]3c3cc(F)cc(-c4cccc(F)c4)c3)ncn2)c(OC)cc1N1CCC(N2CCOCC2)CC1` [Example 207, (R)-N-(5-((6-(3-(3′,5-difluoro-[1,1′-biphenyl]-3-yl)isoxazolidin-2-yl)pyrimidin-4-yl)-amino)-4-methoxy-2-(4-morpholino-piperidin-1-yl)-phenyl)acrylamide]: the GI50 was < 50 nM. With `C=CC(=O)Nc1cc(Nc2cc(N3OCC[C@@H]3c3cc(F)cc(-c4cccc(F)c4)c3)ncn2)c(OC)cc1N(C)CCN(C)C` [Example 208, (R)-N-(5-((6-(3-(3′,5-difluoro-[1,1′-biphenyl]-3-yl)-isoxazolidin-2-yl)-pyrimidin-4-yl)-amino)-2-((2-(dimethylamino)-ethyl)(methyl)-amino)-4-methoxy-phenyl)acrylamide] the figure was < 50 nM; with `C=CC(=O)Nc1cc(Nc2cc(N3OCC[C@@H]3c3cc(F)cc(-c4cccc5ncnn45)c3)ncn2)c(OC)cc1N1CCN(C)CC1` [Example 209, (R)-N-(5-((6-(3-(3-([1,2,4]triazolo-[1,5-a]pyridin-5-yl)-5-fluorophen-yl)isoxazolidin-2-yl)pyrimidin-4-yl)-amino)-4-methoxy-2-(4-methylpiper-azin-1-yl)phenyl)-acrylamide], < 50 nM; with `C=CC(=O)Nc1cc(Nc2cc(N3OCC[C@@H]3c3cc(F)cc(-c4cccc5ncnn45)c3)ncn2)c(OC)cc1N(C)CCN(C)C` [Example 210, (R)-N-(5-((6-(3-(3-([1,2,4]triazolo-[1,5-a]pyridin-5-yl)-5-fluorophen-yl)isoxazolidin-2-yl)pyrimidin-4-yl)-amino)-2-((2-(dimethylamino)-ethyl)(methyl)-amino)-4-methoxy-phenyl)acrylamide], < 50 nM. For `C=CC(=O)Nc1cc(Nc2cc(N3OCCC3c3cccc(-c4cccc(F)c4)c3)ncn2)c(OC)cc1N1CCN(C)CC1` (stereo not shown) [Example 211, N-(5-((6-(3-(3′-fluoro-[1,1′-biphenyl]-3-yl)-isoxazolidin-2-yl)-pyrimidin-4-yl)-amino)-4-methoxy-2-(4-methylpiper-azin-1-yl)phenyl)-acrylamide] the value was 50 to 500 nM.
